From publication PMC3229538, “Inhibition of G Protein-Activated Inwardly Rectifying K^+ Channels by Different Classes of Antidepressants” (PLoS ONE, 2011)
Structures can show the parent of a compound that is named as a salt. Where two headings read alike, the source gives them in different places. One block for each molecule: values may come before it.

Key:
[1] = test system: intrinsic oocyte channels; experiment: Current responses in uninjected Xenopus oocytes; assay type: cell-based, Xenopus laevis
Method: Louis, MO, USA). […] Microelectrodes were filled with 3 M KCl. […] For the analysis of concentration-response relationships, the data were fitted to a standard logistic equation [51] using KaleidaGraph (Synergy Software, Reading, PA, USA). […] The data are expressed as mean ± SEM, and n is the number of oocytes tested. The statistical analysis of differences between groups was performed using paired t-test, one-way analysis of variance (ANOVA), or two-way ANOVA followed by the Tukey-Kramer post hoc test. Values of P<0.05 were considered statistically significant.

[2] = target: T1, GIRK1/2 channels activated by GTPγS (Mus musculus, UniProt P48542+P63250); experiment: Inhibition of total GIRK currents (GTPγS-induced and basal) in GTPγS-injected oocytes; assay type: cell-based; conditions: injection of 13.8 nl of 100 mM into oocyte
T1 construct: expressed in transfected cells; host or cells: Xenopus laevis oocytes injected with in vitro transcribed mRNA
T1 sequence (P63250 1-501): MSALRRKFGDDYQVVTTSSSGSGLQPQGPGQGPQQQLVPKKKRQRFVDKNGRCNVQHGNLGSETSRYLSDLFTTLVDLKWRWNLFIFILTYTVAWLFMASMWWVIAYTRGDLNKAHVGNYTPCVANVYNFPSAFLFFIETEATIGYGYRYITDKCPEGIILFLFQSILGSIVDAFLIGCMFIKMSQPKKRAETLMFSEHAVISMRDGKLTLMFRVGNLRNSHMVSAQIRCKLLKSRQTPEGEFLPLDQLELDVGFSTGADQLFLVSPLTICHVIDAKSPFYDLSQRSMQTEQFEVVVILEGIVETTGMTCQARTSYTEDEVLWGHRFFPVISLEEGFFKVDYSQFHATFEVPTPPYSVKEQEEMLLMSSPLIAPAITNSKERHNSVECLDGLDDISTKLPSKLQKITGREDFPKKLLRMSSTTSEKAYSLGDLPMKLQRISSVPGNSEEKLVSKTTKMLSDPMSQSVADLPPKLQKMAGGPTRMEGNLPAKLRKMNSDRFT
T1 sequence (P48542 1-425): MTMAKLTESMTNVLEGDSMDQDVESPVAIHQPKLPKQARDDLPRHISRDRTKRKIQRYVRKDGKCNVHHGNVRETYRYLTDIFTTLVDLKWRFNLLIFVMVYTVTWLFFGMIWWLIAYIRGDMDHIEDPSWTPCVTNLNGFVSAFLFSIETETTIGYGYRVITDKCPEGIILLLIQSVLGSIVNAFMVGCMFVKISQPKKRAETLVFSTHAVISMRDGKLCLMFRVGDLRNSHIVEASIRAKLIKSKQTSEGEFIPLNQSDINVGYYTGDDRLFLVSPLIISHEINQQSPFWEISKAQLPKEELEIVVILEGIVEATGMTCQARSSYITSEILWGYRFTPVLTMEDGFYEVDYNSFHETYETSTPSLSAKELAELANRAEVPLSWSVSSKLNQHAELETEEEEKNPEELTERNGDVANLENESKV
Description: Microelectrodes were filled with 3 M KCl. […] GIRK channels are activated by various Gi/o-protein-coupled receptors through the direct action of G-protein βγ subunits released from the heterotrimeric G-protein complex, [33].

GIRK1/2 channels = target: T2, GIRK1/2 channels (Mus musculus, UniProt P48542+P63250); experiment: Inhibition of basal GIRK currents, Xenopus oocyte expression assay, two-electrode voltage clamp; assay type: cell-based; conditions: for inhibition at 100 µM: read-out: % inhibition of basal GIRK currents
T2 construct: expressed in transfected cells; host or cells: Xenopus laevis oocytes injected with in vitro transcribed mRNA
T2 sequence (P63250 1-501): T1 sequence (P63250 1-501)
T2 sequence (P48542 1-425): T1 sequence (P48542 1-425)
Method: (§1) Microelectrodes were filled with 3 M KCl. […] The data are expressed as mean ± SEM, and n is the number of oocytes tested. The statistical analysis of differences between groups was performed using paired t-test, one-way analysis of variance (ANOVA), or two-way ANOVA followed by the Tukey-Kramer post hoc test. Values of P<0.05 were considered statistically significant.

GIRK1/4 channels = target: T3, GIRK1/4 channels (Mus musculus, UniProt P48545+P63250); experiment: as above; assay type: cell-based; conditions: for inhibition at 100 µM: read-out: % inhibition of basal GIRK currents
T3 construct: expressed in transfected cells; host or cells: Xenopus laevis oocytes injected with in vitro transcribed mRNA
T3 sequence (P63250 1-501): T1 sequence (P63250 1-501)
T3 sequence (P48545 1-419): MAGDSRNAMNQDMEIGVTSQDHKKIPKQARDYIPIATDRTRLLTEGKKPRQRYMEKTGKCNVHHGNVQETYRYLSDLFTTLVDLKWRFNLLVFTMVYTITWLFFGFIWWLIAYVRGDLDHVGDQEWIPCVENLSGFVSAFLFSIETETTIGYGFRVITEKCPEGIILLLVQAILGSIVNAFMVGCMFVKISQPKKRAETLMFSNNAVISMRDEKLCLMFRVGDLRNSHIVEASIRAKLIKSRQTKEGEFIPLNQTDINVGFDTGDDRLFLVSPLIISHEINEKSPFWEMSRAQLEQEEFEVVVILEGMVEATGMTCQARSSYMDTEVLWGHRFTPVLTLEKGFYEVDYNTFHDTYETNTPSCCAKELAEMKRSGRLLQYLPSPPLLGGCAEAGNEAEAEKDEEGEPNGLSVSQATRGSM
Method: as §1

[3] = cited from earlier work
[4] = pKa of secondary amine group and protonation; assay type: physicochemical; conditions: pH 7.4
[5] = cited from earlier work; remark: listed apart in the source
[6] = ref Data Sheets of Pfizer and Eli Lilly and Company; cited from earlier work
[7] = target: GIRK1/2 channels activated by ethanol (Mus musculus, UniProt P48542+P63250); conditions: 100 mM
Description: These plasmids were linearized by digestion with the appropriate enzymes as described previously [45], [46]. The specific mRNAs were synthesized in vitro using the mMESSAGE mMACHINE™ In Vitro Transcription Kit (Ambion, Austin, TX, USA).

GIRK channels = conditions: cited from earlier work
Kir2.1 channels = test system: T4, Kir2.1 channels; experiment: Effect on Kir2.1 currents, Xenopus oocyte expression assay; assay type: cell-based, mouse; conditions: 300 µM, hK solution
T4 construct: expressed in transfected cells; host or cells: Xenopus laevis oocytes injected with in vitro transcribed mRNA
Method: Microelectrodes were filled with 3 M KCl. […]. The data are expressed as mean ± SEM, and n is the number of oocytes tested. The statistical analysis of differences between groups was performed using paired t-test, one-way analysis of variance (ANOVA), or two-way ANOVA followed by the Tukey-Kramer post hoc test. Values of P<0.05 were considered statistically significant.

[8] = basal GIRK currents, −70 mV, hK solution 96 mM K+
[9] = concentration reducing basal GIRK currents by 25%
[10] = concentration reducing basal GIRK currents by 50%
[11] = read-out: % max (percentage inhibition of basal GIRK currents at the highest concentration tested)
[12] = 100 µM, K4 solution 4 mM K+, −10 mV

SMILES: [Ba+2] [Ba^2+]
current response ([1]; 3 mM, K4 solution 4 mM K+, −10 mV): 7.6±1.3 nA
current response in GTPγS-injected uninjected oocytes ([1]; 3 mM, after GTPγS injection): 3.9±2.1 nA
current response ([1]; 3 mM, hK solution, −70 mV): 3.1±1.7 nA

SMILES: CNCC[C@H](Oc1cccc2ccccc12)c1cccs1 [duloxetine, duloxetine hydrochloride]
effect on outward GIRK currents (GIRK1/2 channels; 30 µM, K4 solution 4 mM K+, holding potential −10 mV): reversibly reduced
voltage dependence of GIRK current inhibition at the end of the voltage pulses (GIRK1/2 channels; 30 µM, −120 to −40 mV): voltage-dependent
n H (Hill coefficient) (GIRK1/2 channels; basal GIRK currents): 0.94±0.06
EC50 (GIRK1/2 channels; [8]): 14.9 ± 0.4 µM
IC25 (GIRK1/2 channels; [9]): 6.6 ± 0.6 µM
IC50 (GIRK1/2 channels; [10]): 28.3 ± 2.5 µM
effect of extracellular pH on percentage inhibition of GIRK channels (GIRK1/2 channels; extracellular pH 7.4 and 9.0): not significantly affected
inhibition at 100 µM (GIRK1/2 channels): 65.6 ± 1%
inhibition at 300 µM (GIRK1/2 channels; [11]): 72.2 ± 1.1%
n H (Hill coefficient) (GIRK1/4 channels; basal GIRK currents): 0.97±0.07
EC50 (GIRK1/4 channels; [8]): 17 ± 1.3 µM
IC25 (GIRK1/4 channels; [9]): 12.6 ± 1.2 µM
IC50 (GIRK1/4 channels; [10]): 124 ± 34.3 µM
inhibition at 100 µM (GIRK1/4 channels): 49.7 ± 2.2%
inhibition at 300 µM (GIRK1/4 channels; [11]): 54.1 ± 1.5%
brain levels compared with blood levels [3]: 15 fold
protonated form [4]: ~98.9%
current response [1, 12]: 0±0 nA
concentrations in cases of overdose [5]: ≤ 8.4 µM
pKa of secondary amine group [6]: 9.34

SMILES: CCN(CC)C(=O)C1(c2ccccc2)CC1CN (stereo not drawn) [milnacipran]
effects on GIRK channels (GIRK channels): little effects

SMILES: CN[C@H]1CC[C@@H](c2ccc(Cl)c(Cl)c2)c2ccccc21 [sertraline, Sertraline hydrochloride]
% change of the Ba2+-sensitive current components (Kir2.1 channels): less than 2%
protonated form [4]: approximately 96.9%
current response [1, 12]: 3.0±0.9 nA
current response ([1]; 300 µM, hK solution, −70 mV): 2.0±2.0 nA
pKa of secondary amine group [6]: 8.9

SMILES: COc1ccc(C(CN(C)C)C2(O)CCCCC2)cc1 (stereo not drawn) [venlafaxine, Venlafaxine hydrochloride]
inhibition at 100 µM (GIRK1/2 channels): 19.4 ± 4.6%
inhibition at 100 µM (GIRK1/4 channels): 22.8 ± 3.2%
brain levels compared with blood levels [3]: 4.9 fold
concentrations in cases of overdose [5]: ≤ 302.8 µM

More lines, main results first:

increase of inward currents, steady-state level [2]: 516.0±123.7 nA
SMILES: Nc1nc2c(ncn2[C@@H]2O[C@H](COP(=O)([O-])OP(=O)([O-])OP([O-])([O-])=S)[C@@H](O)[C@H]2O)c(=O)[nH]1.[Li+].[Li+].[Li+].[Li+] [GTPγS, Li4-guanosine-5′-O-(3-thiotriphosphate)]

induced GIRK currents [7]: 344.2±40.3 nA
SMILES: CCO [ethanol, Ethanol]

inhibition at 100 µM (GIRK1/2 channels; 100 µM, −70 mV, hK solution): 24.1 ± 5.5%
inhibition at 100 µM (GIRK1/4 channels; 100 µM, −70 mV, hK solution): 18.8 ± 1.3%
SMILES: CN1CCN2c3ccccc3Cc3ccccc3C2C1 (stereo not drawn) [mianserin, mianserin hydrochloride]
brain levels compared with blood levels [3]: 12.1 fold
concentrations in cases of overdose [5]: ≤ 18.9 µM

inhibition at 100 µM (GIRK1/2 channels; 100 µM, −70 mV, hK solution): 17.6 ± 3.5%
inhibition at 100 µM (GIRK1/4 channels; 100 µM, −70 mV, hK solution): 12.1 ± 2.4%
SMILES: CN1CCN2c3ncccc3Cc3ccccc3C2C1 (stereo not drawn) [mirtazapine, Mirtazapine]
brain levels compared with blood levels [3]: 3.2 fold

inhibition at 100 µM (GIRK1/2 channels; 100 µM, −70 mV, hK solution): 35.9 ± 3.5%
inhibition at 100 µM (GIRK1/4 channels; 100 µM, −70 mV, hK solution): 30.3 ± 3.4%
SMILES: CCc1nn(CCCN2CCN(c3cccc(Cl)c3)CC2)c(=O)n1CCOc1ccccc1 [nefazodone, nefazodone hydrochloride]
concentrations in cases of overdose [5]: ≤ 11.7 µM
